Experimental findings from US20260217708A1, “FUSED BENZAZEPINE DERIVATIVES FOR USE IN THE TREATMENT OF CANCER AND EPILEPSY” (UCB BIOPHARMA SRL, priority 2023, published 2026) are described below.

Each structure is given as a SMILES string.

Experiment [1] addresses T1, system Xc^− (Homo sapiens, UniProt Q9UPY5).
T1 sequence (Q9UPY5 1-501): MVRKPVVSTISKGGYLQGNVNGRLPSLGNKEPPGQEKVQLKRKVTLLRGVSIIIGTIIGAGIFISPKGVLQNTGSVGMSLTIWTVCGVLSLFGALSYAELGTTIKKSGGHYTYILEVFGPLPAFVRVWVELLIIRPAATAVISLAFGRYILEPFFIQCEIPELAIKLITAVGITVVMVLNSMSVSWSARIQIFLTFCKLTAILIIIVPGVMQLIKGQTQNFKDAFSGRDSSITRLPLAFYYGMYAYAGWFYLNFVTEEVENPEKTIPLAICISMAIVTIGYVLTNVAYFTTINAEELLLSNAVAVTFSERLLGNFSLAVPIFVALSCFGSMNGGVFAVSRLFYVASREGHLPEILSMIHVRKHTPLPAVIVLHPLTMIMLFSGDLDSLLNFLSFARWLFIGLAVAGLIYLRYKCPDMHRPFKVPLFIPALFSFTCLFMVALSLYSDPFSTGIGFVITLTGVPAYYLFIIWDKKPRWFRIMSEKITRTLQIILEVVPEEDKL
T1 sequence (P08195 1-529 partner): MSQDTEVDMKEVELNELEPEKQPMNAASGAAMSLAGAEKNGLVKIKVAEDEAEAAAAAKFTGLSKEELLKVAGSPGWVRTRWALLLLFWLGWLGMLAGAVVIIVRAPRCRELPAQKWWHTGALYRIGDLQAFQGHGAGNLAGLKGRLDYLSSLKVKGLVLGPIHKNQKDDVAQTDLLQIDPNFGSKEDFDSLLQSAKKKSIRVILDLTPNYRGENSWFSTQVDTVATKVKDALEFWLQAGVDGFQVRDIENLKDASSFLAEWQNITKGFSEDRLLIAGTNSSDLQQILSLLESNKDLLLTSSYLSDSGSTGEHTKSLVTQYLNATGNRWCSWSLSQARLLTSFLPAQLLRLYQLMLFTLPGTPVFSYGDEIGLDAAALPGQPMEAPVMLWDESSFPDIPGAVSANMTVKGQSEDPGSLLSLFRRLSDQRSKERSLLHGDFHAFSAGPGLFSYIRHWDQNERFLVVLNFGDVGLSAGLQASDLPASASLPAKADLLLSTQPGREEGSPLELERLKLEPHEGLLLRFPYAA
The experiment can be described thus: Cystine-induced glutamate release assay. It is filed as cell-based. More on the design: endogenous in cells; host or cells: H4 cells. The settings on record: H4 cells, sodium-free HEPES buffer, 50 μM L-Cystine, 2 hours, Amplex Red glutamate readout; read-out: pIC50 Cystine-induced glutamate release assay (converted). The method in brief: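 IC50 (reported as pIC50) normalized to DMSO 1% and Erastin 50 μM controls, from Amplex Red fluorescence of glutamate exported into supernatant. H4 cells were washed into sodium-free buffer to exclude EAAT transport, then given compound with 50 μM L-cystine for 2 h in the incubator.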

Experiment [2] concerns the target T1, system Xc^−. The experiment can be described thus: [^14C]L-Cystine uptake assay. It is filed as cell-based. Set-up: endogenous in cells; host or cells: H4 cells. The settings on record: H4 cells, sodium-free HEPES buffer, 0.5 μM L-[14C]Cystine and 4.5 μM L-Cystine, 1 hour at 37° C.; read-out: pIC50 [^14C] L-Cystine uptake assay (converted). The method in brief: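 Compound effect is given as pIC50, taken between controls of 1% DMSO and 50 μM Erastin. Human H4 cells were pretreated 15 min with compound in sodium-free buffer, then took up 0.5 μM [14C]cystine with 4.5 μM cold cystine for 1 hour at 37° C, read by scintillation proximity counting.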

In the case of `Cc1cc2c(c(O)n1)-c1ccccc1CC(=O)N2CC(=O)Nc1ccc(C(F)(F)F)cc1` [#55, 2-(1-hydroxy-3-methyl-6-oxo-7H-pyrido[4,3-d][3]benzazepin-5-yl)-N-[4-(trifluoromethyl)phenyl]acetamide], the IC50 at system Xc^− [1] is 39.8 to 100 nM; on system Xc^− [2], 100 to 501 nM.
On to `Cc1cc2c(c(C(F)F)n1)-c1ccccc1CC(=O)N2CC(=O)Nc1ccc(C(F)(F)F)cc1` [#56, 2-[1-(difluoromethyl)-3-methyl-6-oxo-7H-pyrido[4,3-d][3]benzazepin-5-yl]-N-[4-(trifluoromethyl)phenyl]acetamide], for which the IC50 on system Xc^− [1] and at system Xc^− [2] was 39.8 to 100 nM throughout.
As for `Cc1cc2c(c(C)n1)-c1cccnc1CC(=O)N2CC(=O)Nc1ccc(C(F)(F)F)cc1` [#57, 2-(3,5-dimethyl-9-oxo-4,8,12-triazatricyclo[9.4.0.0^2,7]pentadeca-1(11),2(7),3,5,12,14-hexaen-8-yl)-N-[4-(trifluoromethyl)phenyl]acetamide], the IC50 at system Xc^− [1] and at system Xc^− [2] was 15.8 to 39.8 nM in each case.
For `Cc1cc2c(c(C)n1)-c1cccnc1CC(=O)N2CC(=O)Nc1ccc(C2CC2)cc1` [#58, N-(4-cyclopropylphenyl)-2-(3,5-dimethyl-9-oxo-4,8,12-triazatricyclo[9.4.0.0^2,7]pentadeca-1(11),2(7),3,5,12,14-hexaen-8-yl)acetamide], the IC50 at system Xc^− [1] was 39.8 to 100 nM; at system Xc^− [2], 100 to 501 nM.
Taken in the same sequence, the figures for `CC(=O)OCc1cc2c(cn1)-c1ccccc1CC(=O)N2CC(=O)Nc1ccc(C(F)(F)F)cc1` [#59, [6-oxo-5-[2-oxo-2-[4-(trifluoromethyl)anilino]ethyl]-7H-pyrido[4,3-d][3]benzazepin-3-yl]methyl acetate] were 100 to 501 nM and 100 to 501 nM.
Turning to `O=C(CN1C(=O)Cc2ccccc2-c2cnc(CO)cc21)Nc1ccc(C(F)(F)F)cc1` [#60, 2-[3-(hydroxymethyl)-6-oxo-7H-pyrido[4,3-d][3]benzazepin-5-yl]-N-[4-(trifluoromethyl)phenyl]acetamide], the IC50 at system Xc^− [1] and at system Xc^− [2] was 100 to 501 nM in each case.
In the case of `Cc1cc2c(c(C#N)n1)-c1ccccc1CC(=O)N2CC(=O)Nc1ccc(C(F)(F)F)cc1` [#61, 2-(1-cyano-3-methyl-6-oxo-7H-pyrido[4,3-d][3]benzazepin-5-yl)-N-[4-(trifluoromethyl)phenyl]acetamide], the IC50 is 15.8 to 39.8 nM on system Xc^− [1] and below 15.8 nM on system Xc^− [2].
For `Cc1cc2c(c(C)n1)-c1ccc(Cl)cc1CC(=O)N2CC(=O)Nc1ccc(C(F)(F)F)cc1` [#62, 2-(9-chloro-1,3-dimethyl-6-oxo-7H-pyrido[4,3-d][3]benzazepin-5-yl)-N-[4-(trifluoromethyl)phenyl]acetamide], the IC50 on system Xc^− [1] was 15.8 to 39.8 nM; on system Xc^− [2] it was below 15.8 nM.
For `Cc1cc2c(c(C)n1)-c1cc(F)ccc1CC(=O)N2CC(=O)Nc1ccc(C(F)(F)F)cc1` [#63, 2-(10-fluoro-1,3-dimeth-yl-6-oxo-7H-pyrido[4,3-d][3]benzazepin-5-yl)-N-[4-(trifluoromethyl)-phenyl]acetamide], the values for the IC50 at system Xc^− [1] and on system Xc^− [2] were 15.8 to 39.8 nM and below 15.8 nM, respectively.
Taken in the same sequence, the figures for `Cc1cc2c(c(C)n1)-c1cccc(F)c1CC(=O)N2CC(=O)Nc1ccc(C(F)(F)F)cc1` [#64, 2-(8-fluoro-1,3-dimeth-yl-6-oxo-7H-pyrido [4,3-d][3]benzazepin-5-yl)-N-[4-(trifluorometh-yl)phenyl]acetamide] were 15.8 to 39.8 nM and below 15.8 nM.
Regarding `Cc1cc2c(c(C)n1)-c1ccc(F)cc1CC(=O)N2CC(=O)Nc1ccc(C(F)(F)F)cc1` [#65, 2-(9-fluoro-1,3-dimeth-yl-6-oxo-7H-pyrido[4,3-d][3]benzazepin-5-yl)-N-[4-(trifluorometh-yl)phenyl]acetamide], the IC50 at system Xc^− [1] was 15.8 to 39.8 nM; at system Xc^− [2] it was below 15.8 nM.
Taken in the same sequence, the figures for `Cc1cc2c(c(CO)n1)-c1ccccc1CC(=O)N2CC(=O)Nc1ccc(C(F)(F)F)cc1` [#66, 2-[1-(hydroxymethyl)-3-methyl-6-oxo-7H-pyrido[4,3-d][3]benz-azepin-5-yl]-N-[4-(trifluoromethyl)phen-yl]acetamide] were 100 to 501 nM and 39.8 to 100 nM.
The matching figures for `COc1ncc2c(c1C)-c1cccnc1CC(=O)N2CC(=O)Nc1ccc(C(F)(F)F)cc1` [#67, 2-(4-methoxy-3-meth-yl-9-oxo-5,8,12-triaza-tricyclo[9.4.0.0^2,7]pentadeca-1(11),2(7), 3,5,12,14-hexaen-8-yl)-N-[4-(trifluoromethyl)-phenyl]acetamide]: 39.8 to 100 nM and 100 to 501 nM.
The matching figures for `N#Cc1c(F)ccc2c1-c1cccnc1CC(=O)N2CC(=O)Nc1ccc(C(F)(F)F)cc1` [#68, 2-(11-cyano-10-fluoro-6-oxo-5H-pyrido[2,3-d][1]benzazepin-7-yl)-N-[4-(trifluoromethyl)-phenyl]acetamide]: 39.8 to 100 nM and 39.8 to 100 nM.
`N#Cc1cc2c(cc1F)-c1cccnc1CC(=O)N2CC(=O)Nc1ccc(C(F)(F)F)cc1` [#69, 2-(9-cyano-10-fluoro-6-oxo-5H-pyrido[2,3-d][1]benzazepin-7-yl)-N-[4-(trifluoromethyl)-phenyl]acetamide]: the IC50 is 39.8 to 100 nM on system Xc^− [1] and 15.8 to 39.8 nM at system Xc^− [2].
The matching figures for `Cc1cc2c(cn1)-c1ccc(C)nc1CC(=O)N2CC(=O)Nc1ccc(C(F)(F)F)cc1` [#71, 2-(5,13-dimethyl-9-oxo-4,8,12-triazatricyclo[9.4.0.0^2,7]pentadeca-1(11),2(7),3,5,12,14-hexaen-8-yl)-N-[4-(trifluoromethyl)phenyl]acetamide]: 100 to 501 nM and 100 to 501 nM.
Taken in the same sequence, the figures for `CCc1nc(C)cc2c1-c1ccccc1CC(=O)N2CC(=O)Nc1ccc(C(F)(F)F)cc1` [#72, 2-(1-ethyl-3-methyl-6-oxo-7H-pyrido[4,3-d][3]benzazepin-5-yl)-N-[4-(trifluoromethyl)phenyl]acetamide] were 39.8 to 100 nM and 15.8 to 39.8 nM.
Taken in the same sequence, the figures for `Cc1cc2c(c(C3CC3)n1)-c1ccccc1CC(=O)N2CC(=O)Nc1ccc(C(F)(F)F)cc1` [#73, 2-(1-cyclopropyl-3-methyl-6-oxo-7H-pyrido[4,3-d][3]benzazepin-5-yl)-N-[4-(trifluoromethyl)phenyl]acetamide] were 100 to 501 nM and 100 to 501 nM.
For the compound `COc1nc(C)cc2c1-c1cnnn1CC(=O)N2CC(=O)Nc1ccc(C(F)(F)F)cc1` [#74, 2-(14-methoxy-12-methyl-8-oxo-4,5,6,9,13-pentazatricyclo[8.4.0.0^2,6]tetradeca-1(1),2,4,11,13-pentaen-9-yl)-N-[4-(trifluoromethyl)phenyl]acetamide], the IC50 on system Xc^− [1] and on system Xc^− [2] was 100 to 501 nM each time.
On to `COc1nc(C)cc2c1-c1cccnc1CC(=O)N2CC(=O)Nc1ccc(C(F)(F)F)cc1` [#75, 2-(3-methoxy-5-methyl-9-oxo-4,8,12-triazatricyclo[9.4.0.0^2,7]pentadeca-1(11),2,4,6,12,14-hexaen-8-yl)-N-[4-(trifluoromethyl)phenyl]acetamide], for which the IC50 at system Xc^− [1] and at system Xc^− [2] was 15.8 to 39.8 nM throughout.
For `Cc1cc2c(c(O)n1)-c1cccnc1CC(=O)N2CC(=O)Nc1ccc(C(F)(F)F)cc1` [#76, 2-(3-hydroxy-5-methyl-9-oxo-4,8,12-triazatricyclo[9.4.0.0^2,7]pentadeca-1(11),2(7),3,5,12,14-hexaen-8-yl)-N-[4-(trifluoromethyl)phenyl]acetamide], the IC50 at system Xc^− [1] and at system Xc^− [2] was 100 to 501 nM in each case.
On to `COc1nc(C)cc2c1-c1cccnc1CC(=O)N2CC(=O)Nc1ccc(C#N)cc1` [#77, N-(4-cyanophenyl)-2-(3-methoxy-5-methyl-9-oxo-4,8,12-triazatricyclo [9.4.0.0^2,7]pentadeca-1(11),2,4,6,12,14-hexaen-8-yl)acetamide], for which the IC50 on system Xc^− [1] was 39.8 to 100 nM; on system Xc^− [2], 100 to 501 nM.
